target: T1, Genome polyprotein (Hepatitis C virus genotype 1b (isolate Japanese), UniProt P26662); experiment: not given

| Structure (SMILES) | IC50 [nM] |
| --- | --- |
| C[C@@]1(Cl)[C@H](O)[C@@H](COP(=O)(O)OP(=O)(O)OP(=O)(O)O)O[C@H]1n1ccc2c(N)ncnc21 [US10513534, Compound 403] | < 250 |
| C[C@@]1(Cl)[C@H](O)[C@@H](COP(=O)(O)OP(=O)(O)OP(=O)(O)O)O[C@H]1n1cnc2c(N)nc(Cl)nc21 [US10513534, Compound 404] | > 10000 |
| C[C@@]1(Cl)[C@H](O)[C@@H](COP(=O)(O)OP(=O)(O)OP(=O)(O)O)O[C@H]1n1cnc2c(=O)[nH]c(N)nc21 [US10513534, Compound 405] | < 250 |
| C[C@@]1(Cl)[C@H](O)[C@@H](COP(=O)(O)OP(=O)(O)OP(=O)(O)O)O[C@H]1n1cc(F)c2c(N)ncnc21 [US10513534, Compound 407] | < 250 |

target: T1, Genome polyprotein; experiment: HCV Polymerase Enzyme Assay
Text: Test compounds in the form of nucleoside triphosphates were examined for inhibitory activity against purified HCV polymerase in a standard assay. Bacterial expression constructs encoding the approximately 65 kDa HCV genotype 1b NS5B protein were used to generate recombinant HCV polymerases (with a deletion of the 21 carboxy terminal amino acids). Both the wild-type genotype 1b protein and protein containing the S282T mutation were expressed and purified for use in the enzymatic activity assay.The enzymatic activity assay measured the inhibitory effect of increasing concentrations of test compound on the incorporation of α-[33P]-labeled nucleotide into trichloroacetic acid-precipitable material. Recombinant polymerase and synthetic RNA template were combined in reaction buffer containing ribonucleoside triphosphates, α-[33P]-labeled nucleotide and eight concentrations of test compound in three-fold dilutions. Reactions were incubated for two hours at 30° C.Reactions were terminated by the addition of ice-cold trichloroacetic acid and sodium pyrophosphate to promote precipitation of newly-synthesized ribonucleic acid. Precipitable material from the reactions was collected by filtration onto 96-well filter plates, washed extensively with water, and quantified by liquid scintillation.The inhibitory activity of test compounds was determined by fitting results to dose-response curves using XLfit software.

| Structure (SMILES) | IC50 [nM] |
| --- | --- |
| C[C@@]1(Cl)[C@H](O)[C@@H](COP(=O)(O)OP(=O)(O)OP(=O)(O)O)O[C@H]1n1ccc(=O)[nH]c1=O [US10513534, Compound 401] | < 250 |
| C[C@@]1(Cl)[C@H](O)[C@@H](COP(=O)(O)OP(=O)(O)OP(=O)(O)O)O[C@H]1n1ccc(N)nc1=O [US10513534, Compound 402] | 5500 |
| C[C@@]1(Cl)[C@H](O)[C@@H](COP(=O)(O)OP(=O)(O)OP(=O)(O)O)O[C@H]1n1cnc2c(N)nc(Cl)nc21 [US10513534, Compound 404] | > 10000 |
| C[C@@]1(Cl)[C@H](O)[C@@H](COP(=O)(O)OP(=O)(O)OP(=O)(O)O)O[C@H]1n1cnc2c(N)ncnc21 [US10513534, Compound 406] | < 250 |
